According to publication PMC2217226 (The Journal of General Physiology, 2000):
“Also recorded” adds a separate entry of the source. Like-named read-outs stand apart in the source and are kept apart here.

What was measured:
[1] = system: endogenous SACs in oocytes; details: ref Lane et al., 1991; cited from earlier work
[2] = system: SACs; details: cited from earlier work
[3] = system: SACs in audiovestibular hair cells; details: ref Jorgensen and Ohmori 1988; cited from earlier work
[4] = system: epithelial Na^+ channels; details: no separate reference printed; cited from earlier work
[5] = system: swelling-activated anion current in astrocytoma cells; details: ref Bakhramov et al. 1995; cited from earlier work
[6] = system: swelling-activated whole-cell current in adult astrocytes; assay type: cell-based, rat
[7] = system: SACs (cation-selective stretch-activated channels) in outside-out patches from adult rat astrocytes; assay: SAC activity in outside-out patches, pressure-activated, patch clamp; assay type: cell-based
[8] = system: NMDA channel; details: ref Bender et al. 1998; cited from earlier work
[9] = system: glutamate-stimulated K^+ influx in neonatal astrocytes; details: ref Bender et al. 1998; cited from earlier work
[10] = system: whole-cell current of rabbit CHF ventricular myocytes in 1.5T hypertonic saline; assay type: cell-based; details: 0.4 μM GsMTx-4, 1.5T hypertonic saline, averages from five cells
[11] = system: normal electrical activity of the heart, rabbit; details: Langendorff-perfused rabbit hearts, preliminary; ref Bode et al. 1999; cited from earlier work
[12] = system: voltage-sensitive whole-cell currents of astrocytes; assay: Voltage-sensitive whole-cell currents, perforated patch; assay type: cell-based, rat; details: concentration not printed at place
[13] = Overall charge of the toxin; assay type: physicochemical; details: from the sequence
[14] = system: ICl,swell (outwardly rectifying Cl^− current), rabbit CHF ventricular myocytes; assay: Swelling-activated anion current in CHF ventricular myocytes, perforated patch; assay type: cell-based
[15] = system: ventricular myocytes from rabbits with aortic regurgitation-induced CHF; assay: Myocyte cell volume during perforated patch voltage clamp; assay type: cell-based, rabbit
[16] = system: rabbit hearts, atrial fibrillation associated with dilatation; details: ref Bode et al. 1999; cited from earlier work
[17] = system: K^+ channel; details: Fig. 8 legend; ref Swartz and MacKinnon 1995; cited from earlier work
[18] = system: E-type Ca^2+ channels; details: Fig. 8 legend; ref Newcomb et al. 1998; cited from earlier work
[19] = introduction, ref Hamill and McBride 1996, Sachs and Morris 1998

N=C(N)NC(=O)c1nc(Cl)c(N)nc1N [Amiloride]
block of endogenous SACs in oocytes [1]: blocks | blocking activity against SACs [2, 19]: low affinity blocking activity | block of SACs in audiovestibular hair cells [3]: blocks | affinity for epithelial Na^+ channels [4]: nanomolar affinity

O=S(=O)(O)c1cc(N=C=S)ccc1C=Cc1ccc(N=C=S)cc1S(=O)(=O)O [DIDS, 4,4′-diisothiocyanatostilbene-2,2′-disulphonic acid, reference compound]
reduction of swelling-activated anion current [5]: significant reduction | effect on swelling-activated current (in words) ([6]; 50 μM DIDS, 30 s hypotonic saline, especially at depolarized potentials, n = 6): significant reduction in current

COc1ccc([C@@H]2Sc3ccccc3N(CCN(C)C)C(=O)[C@@H]2OC(C)=O)cc1 [Diltiazem]
blocking activity against SACs [2, 19]: low affinity blocking activity

N[C@@H](CCC(=O)O)C(=O)O [Glutamate, reference compound]
Activity on astrocyte SACs ([7]; 10 μM, n = 2 trials, outside-out patches at −50 mV): No activation | activation of SACs in unstretched patches ([7]; 10 μM, unstretched patches that contained SACs): did not activate SACs

C[C@]12N[C@H](Cc3ccccc31)c1ccccc12 [MK801]
affinity as NMDA open-channel blocker [8]: nanomolar affinity | effect on glutamate-stimulated K^+ influx [9]: inhibits glutamate-stimulated K^+ influx

COC(=O)C1=C(C)NC(C)=C(C(=O)OC)C1c1ccccc1[N+](=O)[O-] [Nifedipine, reference compound]
Activity on astrocyte SACs [7]: No block

CC[N+](CC)(CC)CC [tetraethylammonium]
blocking activity against SACs [2]: low affinity blocking activity

GsMTx-4
effect on whole-cell current [10]: unaffected; also recorded: did not affect membrane currents | effect on normal electrical activity of the heart [11]: doesn't block normal electrical activity of the heart | effect on peak swelling-activated current (in words) ([6]; 5 μM GsMTx-4, 30 s after hypotonic exposure): significantly reduced the peak current response | reduction in peak swelling-activated current ([6]; 5 μM GsMTx-4, 30 s, after subtracting resting current, representative cell (Fig. 9 C)): ~75% | change in reversal potential of swelling-activated current ([6]; 5 μM GsMTx-4, statistically indistinguishable from 0 mV): +2 mV | reduction in swelling-activated anion current ([6]; adult astrocytes, discussion): 40–50% | reduction in swelling-activated whole-cell current ([6]; hypotonically swollen astrocytes, potential not printed at place): ~40% | recovery of swelling currents after washout ([6]; ∼4 min after washout of 5 μM GsMTx-4): partially recovered | activity against voltage-sensitive whole-cell currents [12]: no effect on whole-cell voltage-sensitive currents; also recorded: did not effect voltage-sensitive currents; also recorded: negligible activity | overall charge [13]: +5 | I/I0 (ratio of blocked to unblocked current) ([7]; from data of Fig. 6, outside-out patches, −50 mV): 0.083 | dissociation rate constant k d ([7]; from washout time constant, n = 7 patches): 0.21 s⁻¹ | state dependence of block ([7]; mechanism of action, closed channels): can act on closed channels | block of SACs ([7]; outside-out patches, 1:1,000 dilution, 8 μg/ml, rapid upon superfusion): the block was complete | effect on ICl,swell ([14]; 0.4 μM GsMTx-4, isotonic (1.0T), averages from five cells): no effect | effect on anion current ([14]; rabbit dilated cardiomyopathy model, concentration not printed at place): did not affect the anion current | cell volume reduction ([15]; 0.4 μM GsMTx-4, 1.0T solution, averages from five cells): 7% | cell volume after osmotic shrinkage ([15]; 0.4 μM GsMTx-4, 1.5T solution, averages from five cells): unaffected | cell volume reduction relative to that produced by 1.5T saline ([15]; 0.4 μM GsMTx-4, isotonic): ~40% | suppression of cardiac arrhythmias [16]: ability to suppress cardiac arrhythmias

Hanatoxin
K^+ channel block [17]: K^+ channel blocker

SNX-482: peptide toxin that blocks E-type Ca^2+ channels (GVDKAGCRYMFGGCSVNDDCCPRLGCHSLFSYCAWDLTFSD; UniProt P56854 1-41, looked up)
E-type Ca^2+ channel block [18]: blocks E-type Ca^2+ channels
